Measurements: US6730780B2, “Water-based ink” (Kao Corporation, priority 2000, dated 2004)

Assays:
Type in all cases: physicochemical
[1] = Water resistance of printed matter (OD residual ratio); conditions: ink containing the dye; printed matter soaked in purified water at 25° C. for 10 minutes
From the text: (§1) There were mixed together 8 parts by weight of a coloring material-containing emulsion obtained in the above item (2) or a 30% aqueous solution of a dye obtained in any one of Reference Examples 1 to 5, 10 parts by weight of trimethylglycine, 5 parts by weight of urea, 1 part by weight of sodium 2-ethylhexylsulfosuccinate and 76 parts by weight of purified water, to give an ink.
(§2) An inkjet printer cartridge (commercially available from CANON INC. under the trade name of BCI-21e) was charged with an ink, and the inkjet printer cartridge was loaded on a bubble jet printer (commercially available from CANON INC. under the model number of BJC430J). Printing was carried out on plain paper (commercially available from CANON INC. under the trade name of The Plain Paper for Inkjet Printing PB Paper) and on high-resolution coated paper (commercially available from CANON INC. under the trade name of (The High Resolution Coated Paper HR-101), and sufficiently dried. Thereafter, the following physical properties of the printed paper were evaluated. The results are shown in Table 2.
(2) Water Resistance
The printed matter on a paper sheet for plain paper copy was soaked in purified water at 25° C. for 10 minutes, and thereafter water was sufficiently removed to be air-dried. The optical density (hereinafter referred to as OD) of the same site before and after soaking was determined by using an optical density analyzer [commercially available from Macbeth Process Measurements Co., umder the trade name of reflection densitometer RD-914]. Its OD residual ratio was obtained in accordance with the following equation: [formula]

[2] = Light fastness of printed matter (OD residual ratio); conditions: ink containing the dye; printed matter irradiated at 10000 kJ/m^2, xenon fade meter
From the text: as §1, §2
(3) Light Fastness
A printed matter of the PB Paper (commercially available from CANON INC.) was irradiated at 10000 kJ/m^2 with a xenon fade meter (commercially available from Suga Shikenki K.K. under the trade name of Low-temperature cycle-xenon-long life-fade meter). The optical density (OD) of the same site before and after irradiation was determined by using the same optical density analyzer as above. Its OD residual ratio was obtained in accordance with the following equation: [formula]

[3] = Ozone resistance of printed matter; conditions: ink containing the dye; printed matter exposed to 3 ppm ozone for 2 hours
From the text: as §1, §2
(4) Ozone Resistance
A printed matter on a paper sheet for plain paper copy was exposed in a gas stream having an ozone concentration of 3 ppm for 2 hours, and the color tone (L*a*b*) before and after exposure was determined by using a colorinmeter [commercially available from Nippon Denshoku Kogyo Kabushiki Kaisha under the trade name of SE2000], and indicated by ΔE.

[4] = Storage stability of ink (retention ratio of physical properties); conditions: ink containing the dye, stored at 60° C. for 3 months; for Retention Ratio of Physical Properties After Storage (%) Surface Tension: surface tension at 25° C.; for Retention Ratio of Physical Properties After Storage (%) Viscosity: viscosity at 25° C.
Method: In 10 g of toluene was dissolved 0.6 g of each dye obtained in Preparation Examples 1 to 5 or Reference Example 6 or 7, and 1.4 g of the vinyl polymer solution obtained in the above item (1) was added to the resulting mixed solution, and the mixture was sufficiently stirred to dissolve the dye.
Next, 5.21 g of a 1 N aqueous potassium hydroxide and 50 g of purified water were added to the resulting solution, and the mixture was further sufficiently stirred. After stirring, the mixture was emulsified with an ultrasonic homogenizer at 400 μA for 20 minutes. Thereafter, toluene was removed with heating under reduced pressure, and the resulting mixture was filtered with a 0.8 μm filter, to give a coloring material-containing emulsion in which the dye was contained in the vinyl polymer.
as §1
A. Storage Stability of Ink
A 100 mL bottle made of a fluorocarbon resin was charged with an ink, and the bottle was stored in the air at 60° C. for 3 months. As the physical properties, particle sizes before and after storage (determined by a particle size distribution analyzer commercially available from OtsuKa Denshi K.K. under the trade name of ELS-8000), viscosity (determined at 25° C. by a viscometer commercially available from Toki Sangyo K.K. under the trade name of VISCOMETER ELS-80L) and surface tension (determined at 25° C. by a surface tension meter commercially available from Kyowa Kaimen Kagaku K.K. under the trade name of AUTOMATIC Surface Tensiometer CBVP-Z) were examined. The retention ratio in each physical property was obtained in accordance with the following equation: [formula]

[5] = Water resistance, alkali resistance and acid resistance of dye on plain paper; design: key: ◯: Dye not being dissolved; x: Dye being dissolved
Method: A. Water Resistance, Alkali Resistance and Acid Resistance
In 10 ml of tetrahydrofuran was dissolved 0.1 g of a dye. A paper sheet for plain paper copy [commercially available from XEROX CO., LTD. under the trade name of XEROX 4024] was immersed in the solution for 10 minutes, and thereafter taken out therefrom to be air-dried at 25° C. for 24 hours. After drying, the paper was immersed in water (water resistance), a 1 N-aqueous sodium bydroxide (alkali resistance), or a 1 N-aqueous hydrochloric acid (acid resistance) for 10 minutes to examine whether or not the dye is dissolved in each solvent. The evaluation was made on the basis of the following evaluation criteria:
◯: Dye not being dissolved

[6] = Solvent solubility of dye; design: key: ◯: Dye not being dissolved; x: Dye being dissolved; conditions: 20° C.
Method: Twenty parts by weight of a dye was added to 100 parts by weight of a solvent shown in Table 1, and whether or not the dye is dissolved in the solvent at 20° C. was observed. The evaluation was made on the basis of the following evaluation criteria:
x: Dye not being dissolved

Compound | Water Resistance [OD Residual Ratio (%)] [1] [%] | Light Fastness [OD Residual Ratio (%)] [2] [%] | Ozone Resistance (ΔE) [3] | Retention Ratio of Physical Properties After Storage (%) Particle Size [4] [%] | Retention Ratio of Physical Properties After Storage (%) Surface Tension [4] [%] | Retention Ratio of Physical Properties After Storage (%) Viscosity [4] [%] | Acid Resistance ([5]; dyed plain paper immersed in 1 N aqueous hydrochloric acid for 10 minutes) | Alkali Resistance ([5]; dyed plain paper immersed in 1 N aqueous sodium hydroxide for 10 minutes) | Water Resistance ([5]; dyed plain paper immersed in water for 10 minutes) | Solvent Solubility 2-Butanone ([6]; 20 parts by weight dye in 100 parts by weight 2-butanone) | Solvent Solubility Ethanol ([6]; 20 parts by weight dye in 100 parts by weight ethanol) | Solvent Solubility Tetrahydrofuran ([6]; 20 parts by weight dye in 100 parts by weight tetrahydrofuran) | Solvent Solubility Toluene ([6]; 20 parts by weight dye in 100 parts by weight toluene)
CCCCN(CCCC)S(=O)(=O)c1cccc(N=Nc2ccc(NC(=O)Nc3ccc(N=Nc4cccc(S(=O)(=O)N(CCCC)CCCC)c4)cc3OC)c(OC)c2)c1 [Oil-Soluble Dye ID] | 100 | 94 | 0 | 101.3 | 97.0 | 96 | – | – | – | – | – | – | –
CCCCN(CCCC)C(=O)C1=NN(c2ccc(S(=O)(=O)N(CCCC)CCCC)cc2)C(=O)C1N=Nc1ccc(S(=O)(=O)N(CCCC)CCCC)cc1 (centres unmarked) [Oil-Soluble Dye IB] | 100 | 98 | 0 | 98.4 | 97.3 | 95 | – | – | – | – | – | – | –
C.I. Acid Yellow 17 [Dye c] | 42 | 93 | 3 | – | 98.6 | 105 | – | – | – | – | – | – | –
C.I. Direct Yellow 132 [Dye e] | 35 | 82 | 0 | – | 101.2 | 105 | – | – | – | – | – | – | –
CCCCCCN(CCCCCC)S(=O)(=O)c1ccc(N=NC2C(=O)N(c3cc(Cl)c(S(=O)(=O)N(CCCCCC)CCCCCC)cc3Cl)N=C2C)cc1 (centres unmarked) [Oil-Soluble Dye IC] | 100 | 100 | 0 | 99.4 | 98.5 | 100 | – | – | – | – | – | – | –
C.I. Direct Yellow 86 [Dye d] | 56 | 86 | 10 | – | 93.9 | 92 | – | – | – | – | – | – | –
C.I. Solvent Red 49 [Dye l] | 100 | 45 | 8 | 93 | 97.9 | 91 | ◯ | ◯ | ◯ | ◯ | ◯ | ◯ | ◯
C.I. Acid Yellow 23 [Dye b] | 40 | 87 | 5 | – | 96.6 | 96 | – | – | – | – | – | – | –
C.I. Acid Red 289 [Dye a] | 84 | 73 | 4 | – | 99.7 | 105 | – | – | – | – | – | – | –
